The record followed here is patent US20060171944A1, “N-formyl peptide receptor mediation of platelet chemotaxis toward injured cells and activation of immune response” (priority 2002, published 2006).

In one experiment the test system is human platelets. Put plainly: Platelet chemotaxis toward ischemic/reperfused human aortic endothelial cells. The class given is cell-based. The conditions noted are these: thrombin-activated platelets. Here is the method:
Primary human aortic endothelial cells were plated in 0.2% gelatin (Sigma) coated 96-well ChemoTx microplates and allowed to recover for 48 hours. Before the plate was placed in the modular incubator chamber (Billups-Rothenberg Inc.; Del Mar, Calif.) the media was replaced with serum-free media containing 10 mM Hepes. The plate was placed on ice and put into the air tight modular incubator chamber and flushed with a gas mixture of 5% CO2 and 95% N2 for 90 min to induce ischemia. The cell culture was then returned to a normoxic environment of atmospheric air/5% CO2 to simulate reperfusion, and allowed to recover for 4 hours in a cell culture incubator. Chemotaxis experiments were then performed.
In particular, studies were performed to determine whether endogenous danger signals released by tissues undergoing ischemia/reperfusion cell injury induced platelet chemotaxis. Primary human aortic cells, plated in a 96-well ChemoTx plate NeuroProbeInc. Gaithersburg, Md. were placed on ice and put into an air tight modular incubator chamber that was flushed with a gas mixture of 5% CO2 and 95% N2 for 90 min to induce ischemia. The cell culture was then returned to a normoxic environment of atmospheric air/5% CO2 and allowed to recover for 4 hours in a cell culture incubator at 37° C.

The target in another experiment is T1, platelet FPR (Homo sapiens, UniProt P21462).
T1 construct: endogenous in cells
T1 sequence (P21462 1-350): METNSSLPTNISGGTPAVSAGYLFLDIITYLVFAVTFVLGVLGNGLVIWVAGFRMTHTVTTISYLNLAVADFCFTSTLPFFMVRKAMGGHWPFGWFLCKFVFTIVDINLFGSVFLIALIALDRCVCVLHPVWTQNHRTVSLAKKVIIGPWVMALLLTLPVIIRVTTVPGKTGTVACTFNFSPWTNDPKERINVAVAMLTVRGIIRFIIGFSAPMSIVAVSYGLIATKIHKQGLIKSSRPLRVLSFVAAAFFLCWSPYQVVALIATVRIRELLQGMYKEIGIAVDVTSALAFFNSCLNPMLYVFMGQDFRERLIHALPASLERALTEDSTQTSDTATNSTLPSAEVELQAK
Put plainly: Inhibition of platelet chemotaxis to fMLF in transwell migration assay. The conditions noted are these: 1 U and 10 U; non-activated and thrombin-activated platelets; P<0.001. The class given is cell-based. Here is the method: In order to further confirm the specificity of the chemotactic response to N-formyl peptide binding of the FPR, platelet FPR was inhibited by several methods to establish its functional requirement for platelet chemotaxis. Platelets were pretreated with an FPR-specific antibody (α-FPR) capable of blocking the binding of N-formyl peptides to the FPR receptor, prior to the transwell migration assay. […] Additionally, platelets were treated with pertussis toxin, a specific inhibitor of the a-subunit of members of the Gi/o class of G-proteins required for FPR activation.
Platelet migration was assessed using a 96-well ChemoTx® microplate (Neuro Probe, Gaithersburg Md.). For all chemotaxis experiments, different concentrations of stimulants were placed in the bottom wells of the microplate and the filter was positioned (2 μm pore size). The cell suspension was seeded onto the top of the filter (30 μl) and the microplates were incubated for 2 hrs at 37° C. For all chemokinesis experiments, different concentrations of stimulants were placed in the bottom wells of the microplate and the filter was positioned. […] The filter was then carefully removed and the migrated cells were counted by light microscopy. Results are expressed as the mean value (±SD) of total migrated cells, in triplicate samples, and are taken from five experiments independent.

On to pertussis toxin, for which the “effect of platelet treatment on chemotaxis toward ischemic aortic endothelial cells” value with human platelets is given as “decreased chemotaxis”. Also, the “effect of platelet treatment with pertussis toxin on migration to fMLF” value on platelet FPR is listed as “significantly decreased migration”.
